Test results taken from patent publication US12679878B2, “CRF2 receptor agonists and their use in therapy” (SANOFI, priority 2020, dated 2026).
Where two headings read alike, the source gives them in different places. Starred links: 1 amine or outer side, 2 acyl side, 3 side chain; linkers in the order of their positions; H or OH if unused. Non-standard residues stand in square brackets, D forms with d. Residues, ends and D or L forms follow the SMILES beside them. Groups on a side chain read outwards from the residue. *: point of attachment. C20 diacid = O=C(O)CCCCCCCCCCCCCCCCCCC(=O)*; C18 diacid = O=C(O)CCCCCCCCCCCCCCCCC(=O)*; γGlu = O=C(O)[C@H](CCC(=O)[*:2])N[*:1]; AEEA = NCCOCCOCC(=O)O; Aib = CC(C)(N)C(=O)O

Legend:
rat CRF2R α receptor = assay: cAMP agonism at rat CRF2R α receptor in A7R5 rat aortic smooth muscle cells (Example 8); format: cell-based; conditions: cAMP HTRF, A7R5 rat aortic smooth muscle cell line, 0% HSA
Method: Cells were grown in a T175 culture flask placed at 37° C. to near confluence in medium (DMEM/10% FBS) and collected in 2 ml vials in cell culture medium containing 10% DMSO in a concentration of 10-50 million cells/ml. Each vial contained 1.8 ml cells. The vials were slowly frozen to −80° C. in isopropanol and then transferred in liquid nitrogen for storage. Prior to use, frozen cells were thawed quickly at 37° C. and washed (5 min at 900 rpm) with 20 ml cell buffer (1×HBSS; 20 mM HEPES; 0% or 0.1% HSA). Cells were resuspended in assay buffer (cell buffer plus 2 mM IBMX) and adjusted to a cell density of 1 million cells/ml. For measurement, 5 μl cells (final […]) and 5 μL of test compound were added to a 384-well plate, followed by incubation for 30 minutes at room temperature.
The CAMP content of cells was determined using a kit from Cisbio Corp. (cat. no. 62AM4PEC) based on HTRF (Homogenous Time Resolved Fluorescence). After addition of HTRF reagents diluted in lysis buffer (kit components), the plates were incubated for 1 h, followed by measurement of the fluorescence ratio at 665/620 nm. The percent activity value (E %) was calculated by setting 1000 nM of urocortin 2 (UCN2) as 100%. The in vitro potency of the compounds was quantified by determining the concentrations that caused 50% activation of maximal response (EC50).
Using the procedure described in Example 7, the activity of the compounds at the rat CRF2R α receptor was assessed. The A7R5 rat aortic smooth muscle cell line was used in this study.

human CRF2α receptor = target: T1, human CRF2α receptor (Homo sapiens, UniProt Q13324); assay: cAMP agonism at human CRF2 α receptor in TeloHEAC cells (Example 7); format: cell-based; conditions: cAMP HTRF, TeloHEAC cells stably expressing human CRF2 α
T1 construct: expressed in transfected cells; host or cells: TeloHEAC
T1 sequence (Q13324 1-411): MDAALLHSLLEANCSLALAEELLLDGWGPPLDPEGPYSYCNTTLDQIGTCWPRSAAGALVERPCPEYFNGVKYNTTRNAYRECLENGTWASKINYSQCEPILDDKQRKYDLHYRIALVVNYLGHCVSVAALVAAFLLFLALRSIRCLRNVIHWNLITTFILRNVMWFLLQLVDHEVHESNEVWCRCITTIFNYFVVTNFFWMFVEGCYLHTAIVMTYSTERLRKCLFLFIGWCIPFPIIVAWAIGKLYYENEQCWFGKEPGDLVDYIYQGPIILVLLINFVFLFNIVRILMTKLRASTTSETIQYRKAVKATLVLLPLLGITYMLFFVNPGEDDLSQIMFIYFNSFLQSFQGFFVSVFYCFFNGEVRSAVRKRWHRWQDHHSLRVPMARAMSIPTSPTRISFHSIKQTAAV
How it was run: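 Steps: thaw and wash cells; suspend in 1×HBSS, 20 mM HEPES, 0 or 0.1% HSA, 2 mM IBMX; add compound, 30 min RT; lyse with HTRF reagents, 1 h; read 665/620 nm. EC50 calculated, E% versus 1000 nM UCN2.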

[1] = 0% HSA, read-out: EC50 [nM], 0% HSA
[2] = 0.1% HSA, read-out: EC50 [nM], 0.1% HSA

| SMILES | EC50 (rat CRF2R α receptor) | EC50 (human CRF2α receptor; [1]) | EC50 (human CRF2α receptor; [2]) |
| --- | --- | --- | --- |
| CC[C@H](C)[C@H](N)C(=O)N[C@H](C(=O)N[C@@H](CC(C)C)C(=O)N[C@@H](CO)C(=O)N[C@@H](CC(C)C)C(=O)N[C@@H](CC(=O)O)C(=O)N[C@@H](C(=O)N1CCC[C@H]1C(=O)N[C@H](C(=O)N[C@@H](CCCCN)C(=O)N[C@@H](CC(C)C)C(=O)N[C@@H](CCCCNC(=O)COCCOCCNC(=O)COCCOCCNC(=O)CC[C@H](NC(=O)CCCCCCCCCCCCCCCCCCC(=O)O)C(=O)O)C(=O)N[C@@H](CCC(N)=O)C(=O)N[C@H](C(=O)N[C@@H](CC(C)C)C(=O)N[C@@H](CC(C)C)C(=O)N[C@@H](CCCCN)C(=O)N[C@@H](CCC(N)=O)C(=O)N[C@@H](CCC(=O)O)C(=O)N[C@@H](CCCNC(=N)N)C(=O)N[C@@H](CCC(N)=O)C(=O)N[C@@H](CCCCN)C(=O)NC(C)(C)C(=O)N[C@@H](CCC(N)=O)C(=O)N[C@@H](CCCNC(=N)N)C(=O)N[C@@H](CCC(=O)O)C(=O)N[C@@H](CCC(N)=O)C(=O)N[C@@H](C)C(=O)N[C@@H](CCC(=O)O)C(=O)N[C@@H](CCCCN)C(=O)N[C@@H](CC(N)=O)C(=O)N[C@@H](CCCCN)C(=O)N[C@@H](CCC(N)=O)C(=O)N[C@H](C(=O)N[C@@H](CC(C)C)C(=O)N[C@@H](C)C(=O)N[C@@H](CCC(N)=O)C(=O)N[C@H](C(N)=O)C(C)C)[C@@H](C)CC)[C@@H](C)CC)[C@@H](C)CC)C(C)C)C(C)C [compound 173] (H-IVLSLD[dV]PIKLK([AEEA-AEEA-γGlu-C20 diacid])QILLKQERQK[Aib]QREQAEKNKQILAQV-NH2; N-terminus assumed) | 0.83 nM | 0.03 nM | 3.49 nM |
| CC[C@H](C)[C@H](N)C(=O)N[C@H](C(=O)N[C@@H](CC(C)C)C(=O)N[C@@H](CO)C(=O)N[C@@H](CC(C)C)C(=O)N[C@@H](CC(=O)O)C(=O)N[C@@H](C(=O)N1CCC[C@H]1C(=O)N[C@H](C(=O)N[C@@H](CCCCN)C(=O)N[C@@H](CC(C)C)C(=O)N[C@@H](CCCCNC(=O)COCCOCCNC(=O)COCCOCCNC(=O)CC[C@H](NC(=O)CC[C@H](NC(=O)CCCCCCCCCCCCCCCCC(=O)O)C(=O)O)C(=O)O)C(=O)N[C@@H](CCC(N)=O)C(=O)N[C@H](C(=O)N[C@@H](CC(C)C)C(=O)N[C@@H](CC(C)C)C(=O)N[C@@H](CCCCN)C(=O)N[C@@H](CCC(N)=O)C(=O)N[C@@H](C)C(=O)N[C@@H](CCCNC(=N)N)C(=O)N[C@@H](CCC(N)=O)C(=O)N[C@@H](CCCCN)C(=O)NC(C)(C)C(=O)N[C@@H](CCC(N)=O)C(=O)N[C@@H](CCCNC(=N)N)C(=O)N[C@@H](C)C(=O)N[C@@H](CCC(N)=O)C(=O)N[C@@H](C)C(=O)N[C@@H](CCC(=O)O)C(=O)N[C@@H](CCCCN)C(=O)N[C@@H](CC(N)=O)C(=O)N[C@@H](CCCCN)C(=O)N[C@@H](CCCNC(=N)N)C(=O)N[C@H](C(=O)N[C@@H](CC(C)C)C(=O)N[C@@H](CCC(=O)O)C(=O)N[C@@H](CCCNC(=N)N)C(=O)N[C@H](C(N)=O)C(C)C)[C@@H](C)CC)[C@@H](C)CC)[C@@H](C)CC)C(C)C)C(C)C [compound 174] (H-IVLSLD[dV]PIKLK([AEEA-AEEA-γGlu-γGlu-C18 diacid])QILLKQARQK[Aib]QRAQAEKNKRILERV-NH2; N-terminus assumed) | 0.42 nM | 0.07 nM | 0.88 nM |
| CC[C@H](C)[C@H](N)C(=O)N[C@H](C(=O)N[C@@H](CC(C)C)C(=O)N[C@@H](CO)C(=O)N[C@@H](CC(C)C)C(=O)N[C@@H](CC(=O)O)C(=O)N[C@@H](C(=O)N1CCC[C@H]1C(=O)N[C@H](C(=O)N[C@@H](CCCCN)C(=O)N[C@@H](CC(C)C)C(=O)N[C@@H](CCCCNC(=O)CCCCCCCCCCCCCCCCC(=O)O)C(=O)N[C@@H](CCC(N)=O)C(=O)N[C@H](C(=O)N[C@@H](CC(C)C)C(=O)N[C@@H](CC(C)C)C(=O)N[C@@H](CCCCN)C(=O)N[C@@H](CCC(N)=O)C(=O)N[C@@H](CCC(=O)O)C(=O)N[C@@H](CCCNC(=N)N)C(=O)N[C@@H](CCC(N)=O)C(=O)N[C@@H](CCCCN)C(=O)NC(C)(C)C(=O)N[C@@H](CCC(N)=O)C(=O)N[C@@H](CCCNC(=N)N)C(=O)N[C@@H](CCC(=O)O)C(=O)N[C@@H](CCC(N)=O)C(=O)N[C@@H](C)C(=O)N[C@@H](CCC(=O)O)C(=O)N[C@@H](CCCCN)C(=O)N[C@@H](CC(N)=O)C(=O)N[C@@H](CCCCN)C(=O)N[C@@H](CCC(N)=O)C(=O)N[C@H](C(=O)N[C@@H](CC(C)C)C(=O)N[C@@H](C)C(=O)N[C@@H](CCC(N)=O)C(=O)N[C@H](C(N)=O)C(C)C)[C@@H](C)CC)[C@@H](C)CC)[C@@H](C)CC)C(C)C)C(C)C [compound 182] (H-IVLSLD[dV]PIKLK(C18 diacid)QILLKQERQK[Aib]QREQAEKNKQILAQV-NH2; N-terminus assumed) | 0.59 nM | 0.03 nM | 3.13 nM |
| CC[C@H](C)[C@H](N)C(=O)N[C@H](C(=O)N[C@@H](CC(C)C)C(=O)N[C@@H](CO)C(=O)N[C@@H](CC(C)C)C(=O)N[C@@H](CC(=O)O)C(=O)N[C@@H](C(=O)N1CCC[C@H]1C(=O)N[C@H](C(=O)N[C@@H](CCCCN)C(=O)N[C@@H](CC(C)C)C(=O)N[C@@H](CCCCNC(=O)CCCCCCCCCCCCCCCCC(=O)O)C(=O)N[C@@H](CCC(N)=O)C(=O)N[C@H](C(=O)N[C@@H](CC(C)C)C(=O)N[C@@H](CC(C)C)C(=O)N[C@@H](CCCCN)C(=O)N[C@@H](CCC(N)=O)C(=O)N[C@@H](C)C(=O)N[C@@H](CCCNC(=N)N)C(=O)N[C@@H](CCC(N)=O)C(=O)N[C@@H](CCCCN)C(=O)NC(C)(C)C(=O)N[C@@H](CCC(N)=O)C(=O)N[C@@H](CCCNC(=N)N)C(=O)N[C@@H](C)C(=O)N[C@@H](CCC(N)=O)C(=O)N[C@@H](C)C(=O)N[C@@H](CCC(=O)O)C(=O)N[C@@H](CCCCN)C(=O)N[C@@H](CC(N)=O)C(=O)N[C@@H](CCCCN)C(=O)N[C@@H](CCCNC(=N)N)C(=O)N[C@H](C(=O)N[C@@H](CC(C)C)C(=O)N[C@@H](CCC(=O)O)C(=O)N[C@@H](CCCNC(=N)N)C(=O)N[C@H](C(N)=O)C(C)C)[C@@H](C)CC)[C@@H](C)CC)[C@@H](C)CC)C(C)C)C(C)C [compound 183] (H-IVLSLD[dV]PIKLK(C18 diacid)QILLKQARQK[Aib]QRAQAEKNKRILERV-NH2; N-terminus assumed) | 1.12 nM | 0.12 nM | 1.58 nM |
| CC[C@H](C)[C@H](N)C(=O)N[C@H](C(=O)N[C@@H](CC(C)C)C(=O)N[C@@H](CO)C(=O)N[C@@H](CC(C)C)C(=O)N[C@@H](CC(=O)O)C(=O)N[C@@H](C(=O)N1CCC[C@H]1C(=O)N[C@H](C(=O)N[C@@H](CCCCN)C(=O)N[C@@H](CC(C)C)C(=O)N[C@@H](CCCCNC(=O)CCCCCCCCCCCCCCCCC(=O)O)C(=O)N[C@@H](CCC(N)=O)C(=O)N[C@H](C(=O)N[C@@H](CC(C)C)C(=O)N[C@@H](CC(C)C)C(=O)N[C@@H](CCCCN)C(=O)N[C@@H](CCC(N)=O)C(=O)N[C@@H](CCC(=O)O)C(=O)N[C@@H](CCCNC(=N)N)C(=O)N[C@@H](CCC(N)=O)C(=O)N[C@@H](CCCCN)C(=O)N[C@@H](CCCCN)C(=O)N[C@@H](CCC(N)=O)C(=O)N[C@@H](CCCNC(=N)N)C(=O)N[C@@H](CCC(N)=O)C(=O)N[C@@H](CCC(N)=O)C(=O)N[C@@H](C)C(=O)N[C@@H](CCC(=O)O)C(=O)N[C@@H](CCCCN)C(=O)N[C@@H](CC(N)=O)C(=O)N[C@@H](CCCCN)C(=O)N[C@@H](CCC(N)=O)C(=O)N[C@H](C(=O)N[C@@H](CC(C)C)C(=O)N[C@@H](C)C(=O)N[C@@H](CCC(N)=O)C(=O)N[C@H](C(N)=O)C(C)C)[C@@H](C)CC)[C@@H](C)CC)[C@@H](C)CC)C(C)C)C(C)C [compound 184] (H-IVLSLD[dV]PIKLK(C18 diacid)QILLKQERQKKQRQQAEKNKQILAQV-NH2; N-terminus assumed) | 0.42 nM | 0.05 nM | 2.83 nM |
